Results on 14 molecules are retold here after paper PMC6382696, “Drug Repurposing: The Anthelmintics Niclosamide and Nitazoxanide Are Potent TMEM16A Antagonists That Fully Bronchodilate Airways” (Frontiers in Pharmacology, 2019).

For test [1], the system named is human bronchial rings. The test can be described thus: Wire myograph bronchodilation of carbachol pre-contracted human bronchial rings (Amgen). As to the method: Bronchodilator studies using human bronchial rings (Figure 5E–G and Supplementary Figure 38) used the same instruments and reagents described earlier for studies on mouse tracheal rings.
Non-transplantable human lungs were obtained through the International Institute for the Advancement of Medicine, IIAM (Edison, NJ, United States) from non-smoking donors who had been ventilated for <3 days with acceptable blood gasses and used within 24 h of cross-clamp time.
Human 4th order bronchial rings were isolated, sliced into 2 mm long rings and then mounted individually in chambers of wire myographs containing 6 ml room temperature PSS per chamber. […] Bronchial rings are allowed to equilibrate in PSS while chambers are warmed to 37°C. […] The rings were then equilibrated for additional 40–60 min, changing buffer every 15–20 min. Tension was adjusted if it dropped below 9.8 mN. Airway rings were “woken up” by exposing to pre-warmed, aerated KPSS and allowing rings to reach plateau of constriction, followed by washing rings four times with PSS. This procedure was repeated two additional times.
Airway contraction response was then assessed by treating with increasing doses of the contractant, carbachol (10 nM to 10 μM), waiting for response plateaus (at least 5 min between additions).
At the end of each CCRC, rings were fully relaxed by addition of 2.2 mM theophylline. One hundred percent contraction was calculated by subtracting the stable tension remaining in the airway ring after theophylline addition from the tension achieved after addition of EC75 carbachol while 100% relaxation is the net tension remaining after theophylline addition. Dose response curves and EC50 values for bronchodilation were determined in GraphPad Prism.

The test system of test [2] is human bronchial smooth muscle cells. The test can be described thus: Histamine-induced depolarization of human bronchial smooth muscle cells (FLIPR membrane potential). Format: cell-based. The note with it: read-out: Histamine Depolarization of ASM Cells (IC50). As for the experimental part:
Cultured human bronchial smooth muscle cells (BSMC) from Lonza were resuspended in Smooth Muscle Growth Medium-2 (SmGM-2; Lonza) at a concentration of 4 × 10^5 cells per ml. One hundred microliters of cells per well were plated in a black wall clear bottom polystyrene 96-well tissue culture plate and incubated in a 37°C humidified incubator with 5% CO2 overnight. Cells were serum starved by removing the SmGM-2 and replaced with one hundred microliters per well of Smooth Muscle Cell Basal Medium 2 (SmBM-2), phenol red-free (PromoCell), and incubated in a 37°C humidified incubator with 5% CO2 for 24 h. SmBM-2 was replaced with 100 microliters of fresh SmBM-2. Compounds were dissolved in 100% DMSO and serially diluted ½ log in a polypropylene 96-well microtiter plate (drug plate). Columns 6 and 12 were reserved as controls (HI control and LO control respectively) and contained only DMSO. Serially diluted compounds were diluted in SmBM-2 to 10X the final concentration. Twenty-five microliters of 10X compound titrations, and one hundred microliters of Blue dye-loading buffer (FLIPR Membrane Potential Assay Kit; Molecular Devices) were added to the cells. Cells were pre-incubated at room temperature with compound for 0.5 h. Five micromolar (10X) histamine was prepared in SmBM-2. Using the FLIPR-Tetra (Molecular Devices), three measurements of the baseline fluorescence were taken over the span of 1 min. Twenty-five microliters per well of 10X histamine were added to the first 11 columns of the plate containing the compound treated cells. Twenty-five microliters of SmBM-2 were added to column 12 for the LO control. Fifty-five fluorescence measurements were taken over the span of 14 min. The area under the curve (AUC) from the fluorescence kinetic traces (normalized to baseline fluorescence) were calculated. The amount of fluorescence in the presence of compound compared with that in the presence of DMSO vehicle alone (HI control) was calculated using the formula: % control (POC) = (compd – average LO)/(average HI – average LO)^∗100.

Test [3] addresses T1, hTMEM16A (abc) (Homo sapiens, UniProt Q5XXA6, DEL476-501).
T1 sequence (Q5XXA6 with tags, fused parts or gaps isoform Q5XXA6-5 DEL539-564): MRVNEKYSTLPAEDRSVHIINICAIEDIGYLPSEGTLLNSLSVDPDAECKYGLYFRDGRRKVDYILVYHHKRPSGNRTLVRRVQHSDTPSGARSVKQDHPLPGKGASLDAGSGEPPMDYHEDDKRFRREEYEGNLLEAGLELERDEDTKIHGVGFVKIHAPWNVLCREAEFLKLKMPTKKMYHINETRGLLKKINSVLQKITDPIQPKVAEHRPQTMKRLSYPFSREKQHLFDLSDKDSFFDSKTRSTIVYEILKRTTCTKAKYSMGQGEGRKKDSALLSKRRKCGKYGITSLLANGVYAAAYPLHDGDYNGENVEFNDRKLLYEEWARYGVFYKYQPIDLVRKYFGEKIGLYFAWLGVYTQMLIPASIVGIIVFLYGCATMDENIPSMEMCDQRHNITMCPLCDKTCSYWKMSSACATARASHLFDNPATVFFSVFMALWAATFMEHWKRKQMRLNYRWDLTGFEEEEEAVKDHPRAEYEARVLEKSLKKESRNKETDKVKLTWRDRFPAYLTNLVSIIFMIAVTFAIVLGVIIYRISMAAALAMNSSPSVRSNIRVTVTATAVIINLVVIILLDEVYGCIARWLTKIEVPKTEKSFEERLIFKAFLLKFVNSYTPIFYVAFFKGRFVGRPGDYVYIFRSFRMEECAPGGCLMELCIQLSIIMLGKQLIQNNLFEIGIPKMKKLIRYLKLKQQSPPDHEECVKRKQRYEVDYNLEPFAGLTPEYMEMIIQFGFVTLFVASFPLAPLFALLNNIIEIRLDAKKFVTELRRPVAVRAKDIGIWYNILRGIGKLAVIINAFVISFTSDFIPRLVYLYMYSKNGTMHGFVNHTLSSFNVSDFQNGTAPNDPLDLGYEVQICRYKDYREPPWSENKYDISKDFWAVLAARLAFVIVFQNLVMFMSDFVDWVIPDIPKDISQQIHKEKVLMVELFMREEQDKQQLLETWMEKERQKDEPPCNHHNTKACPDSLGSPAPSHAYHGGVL
As to the kind of experiment: medchem TMEM16A halide-sensitive YFP assay, 22-point dose-response. Further details: expressed in transfected cells. Conditions: for scope of block of ionomycin-induced iodide eYFP quenching: up to 55.6 μM. Format: cell-based. The essentials:
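HEK293T stably expressing eYFP (H149Q, I153L) and hTMEM16A(abc), preincubated 30 min at room temperature with compound in HBSS/10 mM HEPES pH 7.4.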

Where [4] appears, read: Homo sapiens, EC75 carbachol, 4th order bronchi, 5 μM indomethacin, read-out: EC50 relaxing carbachol precontracted human bronchial rings.
[5] abbreviates: Homo sapiens, supplement, 5 M indomethacin (so in the source), read-out: EC50 relaxation of carbachol pre-contracted human bronchial rings.
Where [6] appears, read: average, 22-point dose-response, iodide as permeant anion, read-out: TMEM16A eYFP Assay (IC50).
Where [7] appears, read: supplement, iodide as permeant anion, maximum concentration 55.6, read-out: TMEM16A eYFP Assay IC50.

Values joined by “and” are separate entries in the source; they are usually repeats but may differ in a detail not shown here. Identical values can stand only once. Like-named read-outs stand apart in the source and are kept apart here.

As to `N#Cc1c(C(F)(F)F)cc(O)n2c1nc1ccccc12` [1PBC], the results for the EC50 in test [1] (setting [4]) and in test [1] (setting [5]) were 0.91 ± 0.2 µM and 0.761 µM, respectively. Besides, the IC50 in test [2] is 0.964 ± 0.756 µM; in test [3] (setting [6]) it was 1.52 ± 1.36 µM; in test [3] (setting [7]) it was 1.52 ± 1.36 µM. The “scope of block of ionomycin-induced iodide eYFP quenching” value (shortened to “scope”) in test [3] is listed as “only partial inhibition”.
In the case of `CCc1oc2ccccc2c1C(=O)c1cc(Br)c(O)c(Br)c1` [Benzbromarone], the EC50 in test [1] (setting [4]) was 2.08 ± 1.95 µM; in test [1] (setting [5]), 3.45 µM. Further, the IC50 worked out at 0.208 ± 0.248 µM in test [2]; 1.51 ± 0.504 µM in test [3] (TMEM16A eYFP Assay IC50, supplement, iodide as permeant anion, maximum concentration 55.6); 1.51 ± 0.504 µM in test [3] (setting [6]). Also, the “scope” value in test [3] is reported as “fully inhibited”.
Turning to `CC(C)(C)C1CCc2c(sc(NC(=O)c3ccco3)c2C(=O)O)C1` (stereo not drawn) [CaCCinh-A01], the EC50 in test [1] (setting [4]) was 9.24 µM. Further, the IC50 in test [2] was found to be 4.76 ± 1.23 µM.
As for `O=C(Nc1ccc([N+](=O)[O-])cc1)c1cc(Cl)ccc1O` [Cpd 2], the IC50 in test [2] was determined as 0.044 µM. Further, in test [3], the “scope” value is reported as “only partially inhibited”.
As for `O=C(Nc1ccc([N+](=O)[O-])cc1)c1cc(Cl)c2ccccc2c1O` [Cpd 3], the IC50 in test [2] worked out at 0.017 µM; in test [3] (setting [6]), 0.184 ± 0.089 µM. Moreover, in test [3], the “scope” value is “only partially inhibited”.
For the molecule `COc1cc([N+](=O)[O-])ccc1NC(=O)c1cc(Cl)c2ccccc2c1O` [Cpd 4], the EC50 in test [1] (setting [4]) was found to be 1.61 µM. Further, the values for the IC50 in test [2], in test [3] (setting [6]) and in test [3] (setting [7]) were 0.178 ± 0.007 µM, 0.901 ± 0.524 µM and 0.954 ± 0.648 µM, respectively. In addition, the “scope” value in test [3] was “only partial inhibition”.
In the case of `O=C(Nc1ccc(Cl)cc1)c1cc(Cl)ccc1O` [Cpd 5], the results for the IC50 in test [2], in test [3] (setting [6]) and in test [3] (setting [7]) were 0.071 ± 0.02 µM, 0.37 ± 0.131 µM and 0.37 ± 0.131 µM, respectively. Further, the “scope” value in test [3] is recorded as “only partially inhibited”.
For `Oc1ccc(Cl)cc1Cc1cc(Cl)ccc1O` [Dichlorophen], the concentration giving a half-maximal response (EC50) in test [1] (EC75 carbachol, 4th order bronchi, 5 μM indomethacin, read-out: EC50 relaxing carbachol precontracted human bronchial rings) was determined as 10.6 ± 12 µM; in test [1] (setting [4]), 19.1 µM. Moreover, the results for the IC50 in test [2], in test [3] (setting [6]) and in test [3] (setting [7]) were 0.938 ± 0.36 µM, 4.37 ± 1.21 µM and 4.36 ± 1.21 µM, respectively. Further, in test [3], the “scope” value is “fully inhibited”.
With `COc1cc(Nc2ccc([N+](=O)[O-])cc2C(=O)O)cc2ccccc12` [MONNA], the IC50 in test [2] was 0.201 ± 0.162 µM; in test [3] (setting [6]), 6.29 ± 1.47 µM; in test [3] (setting [7]) it was 6.29 ± 1.47 µM. Also, the “scope” value in test [3] is “fully inhibited”.
With `O=C(Nc1ncc([N+](=O)[O-])s1)c1cccs1` [NTTP], the IC50 in test [2] turned out to be 25.2 ± 5.45 µM; in test [3] (setting [6]), 2.48 ± 1.24 µM.
Consider `O=C(Nc1ccc([N+](=O)[O-])cc1Cl)c1cc(Cl)ccc1O` [Niclosamide], for which, in test [1] (setting [4]), the concentration for a half-maximal effect (EC50) came out at 0.73 µM. Besides, the IC50 was 0.389 ± 0.478 µM in test [2]; 0.13 µM and 0.132 µM in test [3] (setting [6]); 0.132 ± 0.0671 µM in test [3] (setting [7]). Moreover, the “maximal percent inhibition in the TMEM16A/eYFP assay” value in test [3] (iodide as permeant anion) stood at 62.4 ± 12.0%. Moreover, the “scope” value in test [3] is reported as “only partial inhibition”. Besides, the “times more potent than other antagonists in the halide-sensitive YFP assay” value in test [3] (versus eight benchmark antagonists) was 10–200 times.
With `O=C(O)c1cccnc1Nc1cccc(C(F)(F)F)c1` [Niflumic Acid], the EC50 in test [1] (setting [4]) is 14.4 ± 0.76 µM; in test [1] (setting [5]) it was 14.9 µM. The figures for the IC50 in test [2] and in test [3] (setting [6]) were 6.29 ± 1.59 µM and 26.6 ± 11.8 µM, respectively.
Regarding `CCc1c(C)nc(SCC(=O)Nc2nc(-c3ccc(OC)cc3)cs2)[nH]c1=O` [T16Ainh-A01], the IC50 in test [2] was > 30 µM; in test [3] (setting [6]), > 50 µM; in test [3] (setting [7]) it was > 55.6 µM. Also, the “scope” value in test [3] is “inactive”.
Consider `O=C(Nc1ncc([N+](=O)[O-])s1)c1ccccc1O` [Tizoxanide], for which the IC50 in test [3] (setting [6]) was determined as 0.398 µM. In addition, in test [3], the “scope” value is listed as “partially inhibiting”.
